The text below walks through data of US20250206751A1, “HETEROCYCLIC COMPOUND FOR INDUCING DEGRADATION OF G12D MUTANT KRAS PROTEIN” (Astellas Pharma Inc., priority 2022, published 2025).

For one experiment, the target named is T1, KRAS G12D protein (Homo sapiens, UniProt P01116, G12D).
T1 construct: host or cells: AsPC-1
The experiment is described as follows: KRAS degradation activity by Cell ELISA in AsPC-1 (Test Example 1). The class given is cell-based. The conditions noted are these: AsPC-1 cells, cultured overnight with compound, corrected with β-actin, read-out: DC50 (50% degradation concentration of the amounts of KRAS). In a few lines:
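AsPC-1 cells (KRAS G12D), 2.0×10^4/well, treated overnight with compound (10 points, 10 μM–0.3 nM final) in RPMI 1640/10% FBS. Fixed cells immunostained for G12D-specific Ras and β-actin, with near-IR fluorescence read. Ras/actin ratio scaled DMSO = 0% and actin-only = 100%, and DC50 fitted by Sigmoid-Emax regression.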

The subject of experiment [1] is phosphorylation of threonine 202 (Thr202) and tyrosine 204 (Tyr204) of ERK. Description: ERK phosphorylation inhibitory effect by Cell ELISA in AsPC-1 (Test Example 2). To be noted: cultured overnight with compound, 1 μM trametinib taken as 0%. The class given is cell-based, human. In a few lines: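 AsPC-1 cells (G12D KRAS) treated overnight with compound (10 points, 10 μM to 0.3 nM final), then glyoxal-fixed and immunostained for phospho-ERK with a fluorescent secondary read at 800 nm. IC50 by Sigmoid-Emax regression, with DMSO as 100% and 1 μM trametinib as 0%.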
In general terms: An ELISA detects its analyte on a solid surface through an enzyme-linked reagent.

For experiment [2], the system named is human G12D mutant KRAS-positive pancreatic cancer line AsPC-1. Description: Non-anchorage-dependent cell growth inhibition, spheroid 3D cell culture (Test Example 3). The class given is cell-based. To be noted: AsPC-1 spheroid 3D culture, 6 days, CellTiter Glo 2.0. In a few lines: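 AsPC-1 spheroids, 5×10^2 cells per well on low-adhesion round-bottom plates in RPMI 1640/10% FBS, dosed next day at 10 or 6 points spanning 10 μM to 0.3 nM final for 6 days at 37° C., 5% CO2. Viability by CellTiter Glo 2.0 luminescence; IC50 by Sigmoid-Emax regression, DMSO 100% and cell-free medium 0%.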
A general note: In ATP-based viability assays light output follows the ATP content of the culture.

Where [3] appears, read: Homo sapiens, ASPC1, AsPC-1 cells.

Each structure is given as a SMILES string.

T1 sequence (P01116 1-188 isoform P01116-2 G12D): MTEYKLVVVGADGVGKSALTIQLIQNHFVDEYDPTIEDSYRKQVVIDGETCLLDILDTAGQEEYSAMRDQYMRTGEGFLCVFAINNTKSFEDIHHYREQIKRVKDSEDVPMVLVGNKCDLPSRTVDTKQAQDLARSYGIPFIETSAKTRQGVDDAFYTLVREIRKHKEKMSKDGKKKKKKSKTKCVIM

With `CO[C@@H](C)COc1cc(O[C@H]2CCNC2)c2cc(C3CC3)c(-c3c(C)c(F)cc4[nH]ncc34)c(OCc3ccc(-c4cn([C@H](C(=O)N5C[C@H](O)C[C@H]5C(=O)N[C@@H](CO)c5ccc(-c6scnc6C)cc5)C(C)C)nn4)cc3)c2n1` [Example 22], the DC50 at KRAS G12D protein came out at 59 nM. For the same molecule, the IC50 (in general, the concentration that gives 50% inhibition) in experiment [1] (setting [3]) is 5 nM; in experiment [2] (Homo sapiens, ASPC1, 144 h) it was 5 nM.
Turning to `Cc1ncsc1-c1ccc([C@H](CO)NC(=O)[C@@H]2C[C@@H](O)CN2C(=O)[C@H](C(C)C)n2cc(-c3ccc(COc4c(-c5c(C)c(F)cc6[nH]ncc56)c(C5CC5)cc5c(N(C)[C@H]6CCNC6)nc(OC[C@@H](C)C(F)F)nc45)cc3)nn2)cc1` [Example 42], on KRAS G12D protein, the DC50 is 91 nM. Besides, the IC50 in experiment [1] (setting [3]) was 6 nM; in experiment [2] (Homo sapiens, ASPC1, 144 h) it was 4 nM.
Take `CO[C@@H](C)COc1cc(N2C[C@@H]3C[C@H]2CN3)c2cc(C3CC3)c(-c3c(C)c(F)cc4[nH]ncc34)c(OCc3ccc(-c4cn([C@H](C(=O)N5C[C@H](O)C[C@H]5C(=O)N[C@@H](CO)c5ccc(-c6scnc6C)cc5)C(C)C)nn4)cc3)c2n1` [Example 55]: at KRAS G12D protein, the DC50 is 10 nM. The IC50 in experiment [1] (setting [3]) was 4 nM; in experiment [2] (Homo sapiens, ASPC1, 144 h), 15 nM.
As to `CO[C@@H](C)COc1cc(N(C)[C@H]2CCNC2)c2cc(C3CC3)c(-c3c(C)c(F)cc4[nH]ncc34)c(OCc3ccc(-c4cn([C@H](C(=O)N5C[C@H](O)C[C@H]5C(=O)N[C@@H](CO)c5ccc(-c6scnc6C)cc5)C(C)C)nn4)cc3)c2n1` [Example 56], the DC50 at KRAS G12D protein worked out at 28 nM. The values for the half-maximal inhibitory concentration (IC50) in experiment [1] (AsPC-1 cells) and in experiment [2] were 17 nM and 73 nM, respectively.
